Data on two compounds can be found in article PMC11331414, “Small molecule telomerase inhibitors are also potent inhibitors of telomeric C-strand synthesis” (RNA, 2024).

Where two headings read alike, the source gives them in different places.

Assay [1] addresses CST–PP (CST–polymerase α–primase). Nature of the assay: CST–PP C-strand synthesis inhibition. Type of assay: biochemical, human. The conditions noted are these: for IC50: 25 nM CST–PP, 25 nM template, read-out: IC50synthesis. As to the method:
Telomeric C-strand synthesis was performed with CST–PP purified from cultured human cells (HEK293T), a synthetic telomeric DNA template (9xTEL, (TTAGGG)9), ribonucleotides to allow primase activity, and deoxynucleotides including α-^32P-dATP to monitor polymerase α extension. To test whether TMPyP4 would inhibit DNA synthesis by CST–PP, we preincubated 25 nM 9xTEL with increasing concentrations of the drug, then added 25 nM CST–PP and nucleotides and observed C-strand synthesis by gel electrophoresis (Fig. 1A, left). To serve as a size marker and recovery control, a small fraction of the template (T) was radiolabeled. The expected synthesis products were observed, all smaller than the 54-nt template (Supplemental Fig. S2A). The limited extension reflects the limited processivity of CST–PP, and the 6-nt ladder of products is due to multiple initiation sites on the 6-nt repeat template ([Zaug et al. 2022]).
(§1) CST–PP was purified from HEK 293T/17 cells (CRL-11268, ATCC), as previously described ([Zaug et al. 2021], [2022]). Briefly, cells were transfected with 3xFLAG-CTC1, Myc-STN1, and HA-TEN1 at a ratio of 1:1:1, expanded and grown for 48 h, and collected. The complex was purified by successive anti-FLAG and anti-HA immunoprecipitation. Endogenous Polα–primase copurifies with CST ([Zaug et al. 2022]). The purity of the complex was verified by silver staining and concentrations were determined by western blot analysis ([Zaug et al. 2022]).
Reactions (10 μL) contained 25 nM CST–PP and 25 nM single-stranded template DNA in 1× reaction buffer (50 mM Tris-HCl pH 8.0, 2 mM MgCl2, 1 mM spermidine, and 5 mM β-mercaptoethanol), 1× Na^+/K^+ (75 mM KCl and 50 mM NaCl) or 1× Li^+ (125 mM LiCl) salts, rNTPs (0.2 mM each CTP, UTP, ATP), and dNTPs (0.5 mM dCTP, 0.5 mM dTTP, 0.33 μM [α-^32P]dATP [300 Ci mmol^–1], 0.29 μM unlabeled dATP), the indicated concentrations of TMPyP4 or PDS, and 0.2% DMSO.
DNA templates and small molecule dilutions were prepared fresh immediately before each use. A small proportion of the template DNA was 5′ radiolabeled (typically ∼0.1–0.5 nM, 5000 counts per minute per reaction) to serve as a recovery and loading control and internal size marker. CST–PP generated more products with 9xnoGG in Na^+/K^+ than in other conditions, so in that condition, 5× more radioactive template was used (keeping total DNA at 25 nM) so that the control signal was not overwhelmed by the product signal. DNA templates in buffer and designated salt were placed in 95°C heat block for 5 min and cooled at room temperature for 30 min. Dilutions of PDS or TMPyP4 in 1% DMSO (or 1% DMSO only for no inhibitor condition) were added (final 0.2% DMSO), and mixtures were incubated in 30°C water bath for 30 min. CST–PP was added and mixtures were returned to water bath for 30 min. NTPs were added and the reaction proceeded at 30°C for 1 h; 50 µL stop mix (3.6 M ammonium acetate and 0.2 mg mL^−1 glycogen) was then added.
Quenched reactions were cleaned up using the Oligo Clean & Concentrator kit (D4060, Zymo) and eluted in water. An equivalent volume of 2× loading dye (95% formamide, 20 mM EDTA, and 0.05% each bromophenol blue and xylene cyanol) was added. Samples were boiled for 5 min, then loaded on a 10% acrylamide, 7 M urea, and 1× TBE gel. Molecular weight ladders were generated by telomerase as above (no small molecule). Gels were run at 30 W until the bromophenol blue was ∼2 in from the bottom (∼1–1.5 h) and dried on Whatman 3 mm paper at 80°C under a vacuum for 15–30 min. Gels were then exposed to a phosphorimager screen, which was imaged with Amersham Typhoon scanner 5 and analyzed using ImageQuant. The intensity of synthesis was normalized to the intensity of the loading control in the same lane. Relative synthesis was calculated by dividing normalized synthesis at each inhibitor concentration by the normalized synthesis without inhibitor. […]

For another assay, the target named is T1, telomerase (Homo sapiens, UniProt O14746).
T1 construct: 3xFLAG (N); made in house; host or cells: HEK293T
T1 sequence (O14746 whole entry): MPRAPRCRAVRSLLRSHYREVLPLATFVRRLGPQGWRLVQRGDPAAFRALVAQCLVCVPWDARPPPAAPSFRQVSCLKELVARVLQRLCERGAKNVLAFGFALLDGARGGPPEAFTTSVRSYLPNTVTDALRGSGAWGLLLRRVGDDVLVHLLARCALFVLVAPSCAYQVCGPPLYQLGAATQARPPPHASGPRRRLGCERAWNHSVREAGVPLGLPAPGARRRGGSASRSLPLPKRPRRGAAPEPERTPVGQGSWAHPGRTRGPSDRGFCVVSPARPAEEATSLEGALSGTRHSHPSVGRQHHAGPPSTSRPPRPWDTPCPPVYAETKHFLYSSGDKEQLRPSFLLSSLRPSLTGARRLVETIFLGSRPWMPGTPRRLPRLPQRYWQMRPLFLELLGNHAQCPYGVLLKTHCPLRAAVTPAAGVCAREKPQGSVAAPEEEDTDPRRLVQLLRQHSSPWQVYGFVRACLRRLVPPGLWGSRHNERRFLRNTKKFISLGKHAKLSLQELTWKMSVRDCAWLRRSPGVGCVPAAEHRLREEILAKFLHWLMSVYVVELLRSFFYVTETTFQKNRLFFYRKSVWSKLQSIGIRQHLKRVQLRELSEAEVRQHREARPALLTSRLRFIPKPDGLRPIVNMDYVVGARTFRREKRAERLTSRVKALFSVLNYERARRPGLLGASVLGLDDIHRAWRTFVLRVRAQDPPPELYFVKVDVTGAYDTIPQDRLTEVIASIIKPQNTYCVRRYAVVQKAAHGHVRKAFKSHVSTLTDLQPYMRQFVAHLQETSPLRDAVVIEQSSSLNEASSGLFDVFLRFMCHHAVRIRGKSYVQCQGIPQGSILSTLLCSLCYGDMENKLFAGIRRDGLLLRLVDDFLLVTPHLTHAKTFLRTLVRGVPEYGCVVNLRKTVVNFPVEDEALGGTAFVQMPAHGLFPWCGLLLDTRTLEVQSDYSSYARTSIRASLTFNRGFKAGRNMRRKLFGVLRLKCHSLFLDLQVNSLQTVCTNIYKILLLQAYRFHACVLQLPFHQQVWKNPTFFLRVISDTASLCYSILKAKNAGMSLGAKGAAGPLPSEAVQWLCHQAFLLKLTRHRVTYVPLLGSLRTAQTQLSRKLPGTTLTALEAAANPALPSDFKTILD
Nature of the assay: Telomerase inhibition (direct primer extension, 3xTEL primer). The class given is biochemical.

For assay [2], the target named is CST–PP (CST–polymerase α–primase). Nature of the assay: CST–PP binding to template DNA (EMSA) inhibition. The conditions noted are these: 25 nM CST–PP, 25 nM template, read-out: IC50binding. The arrangement: species or system human. How it is done:
To test directly if TMPyP4 inhibited CST–PP by preventing association with the templates, we next measured the effect of the drug on the proportion of DNA bound by CST–PP. We used the same conditions as in the synthesis reaction and observed that the DNA was about half bound in the absence of an inhibitor. We prepared DNA templates with an increasing concentration of TMPyP4 as before, then incubated with CST–PP and analyzed by EMSA (electrophoretic mobility shift assay) (Fig. 2A). By normalizing the fraction of DNA bound at each concentration of inhibitor to fraction bound without drug, we determined IC50 values for binding (IC50binding) in the two salts for both 9xTEL and 9xnoGG (Fig. 2B; Table 1).
as §1
Binding reactions were prepared identically to synthesis reactions, except glycerol (10% final) was added in place of the NTP mix. DNA and small molecules were incubated for 30 min at 30°C, then CST was added and incubation continued for another hour. Samples were loaded onto a 1× TBE 0.7% agarose gel and run at 70 V for 75 min at 4°C. The gels were placed on Hybond N^+ atop Whatman 3 mm paper and dried under a vacuum at 80°C for 1 h. They were then exposed to a phosphorimager screen, which was imaged using an Amersham Typhoon scanner 5. Binding was analyzed using ImageQuant; fraction bound was determined by dividing the number of counts in the bound band by the total number of counts in the lane, not including the well. Relative binding was calculated by dividing the fraction bound at each inhibitor concentration by the fraction bound without inhibitor. Results were plotted and analyzed as above.
(In general: Mobility shift assays separate free from complexed probe on a gel.)

Another assay relates to 9xTEL DNA (TTAGGG)9. Briefly: Circular dichroism thermal melt of 9xTEL DNA. The arrangement: species or system human. The conditions noted are these: 10:1 small molecule:DNA. An excerpt:
As the native gels were insufficient to identify the types of secondary structures formed by the ssDNA templates, we turned to circular dichroism (CD) for more information. We first examined 9xTEL in NaCl; with positive peaks at 290 and 240 nm and a negative peak at 260 nm, the spectrum matched published spectra for antiparallel GQ formation (Fig. 5A). We also collected spectra of 9xTEL in Na^+/K^+ and in K^+ only, which were both consistent with hybrid GQ (Supplemental Fig. S4A,B). Then we added TMPyP4 to 9xTEL at a ratio of 10:1 in each salt condition. […] We performed thermal melts of 9xTEL in Na^+ with and without TMPyP4, monitoring the signal from the positive peak at 290 nm and the negative peak at 260 nm (Fig. 5B). We found the drug increased the melting temperature (Tm) by about 10°C. Thus, 9xTEL DNA in Na^+ forms an antiparallel GQ that is stabilized by TMPyP4, consistent with previous studies ([Martino et al. 2009]).
(§2) CD samples contained 250 nM DNA in 75 mM NaCl and 50 mM KCl (Na^+/K^+), or 125 mM NaCl, KCl, or LiCl, 0.2× reaction buffer (10 mM Tris-HCl pH 8.0, 0.4 mM MgCl2, 0.2 mM spermidine, and 1 mM β-mercaptoethanol), and 0.02% DMSO; those with inhibitors also included 2.5 µM TMPyP4 or PDS. Baseline control samples consisted of 1× corresponding salt and 0.2× reaction buffer.
(§3) Samples containing DNA, salt, and buffer were placed in 95°C heat block for 10 min and cooled at room temperature for 30 min. PDS, TMPyP4, or DMSO was added and samples were incubated at 30°C for 30 min; 1.8 mL was added to a 10 mm path length cuvette and loaded into a Chirascan Plus Circular Dichroism and Fluorescence Spectrometer (Applied Photophysics). Spectra were collected between 360 and 220 nm with a step size of 1 nm. Three repeats were averaged and smoothed with a second-order polynomial with 10 neighbors on each side (Prism).
Continuous ramped thermal melts were performed at the indicated wavelengths with a 2 nm bandwidth. The temperature was increased from 20°C to 90°C at a rate of 1°C/min with a time-per-point of 12 sec. […]
On the technique in general: Circular dichroism is widely used to follow secondary structure.

For another assay, the system named is 9xnoGG DNA (TGAGTG)9. Briefly: Circular dichroism thermal melt of 9xnoGG DNA. The conditions noted are these: 10:1 small molecule:DNA; for thermal melt transition temperature: CD at 260 and 240 nm. As to the method: We performed thermal melts of 9xnoGG in Na^+ and Li^+ and monitored the signal at the predominant peaks (positive at 260 nm and negative at 240 nm). The curves were biphasic, with an initial sharp transition at ∼26°C and a minor, broader transition ∼40°C (Fig. 5E). We wondered whether the first transition might represent the dissociation of a dimeric species and collected a full CD spectrum of 9xnoGG at both 12°C and 30°C. While the spectra were very similar, the amplitudes of the positive and negative peaks at 12°C were nearly twice that of the same sample at 30°C (Supplemental Fig. S5B). CD peak attenuation is consistent with a dimer-to-monomer transition ([Kypr et al. 2009]; [Vorlíčková et al. 2012]).
as §2, §3
Continuous ramped thermal melts were performed at the indicated wavelengths with a 2 nm bandwidth. The temperature was increased from 20°C to 90°C at a rate of 1°C/min with a time-per-point of 12 sec. Positive peaks were normalized to 1 at the lowest temperature, and negative peaks were normalized to −1 at the lowest temperature. Spectra were smoothed as above.

Protocol for telomerase: Telomerase reactions (20 µL) contained 2 nM telomerase and 50 nM 3xTEL DNA in 1× telomerase activity buffer (50 mM Tris-HCl pH 8.0, 2 mM MgCl2, 1 mM spermidine, 5 mM β-mercaptoethanol, 75 mM KCl, and 50 mM NaCl), and dNTPs (0.5 mM dGTP, 0.5 mM dTTP, 0.33 μM [α-^32P]dATP [300 Ci mmol^–1], 3.3 μM unlabeled dATP), the indicated concentrations of TMPyP4 or PDS, and 10% DMSO. All components were mixed, and the samples were incubated at 30°C for 1 h. Reactions were quenched with 100 µL LC stop mix (3.6 M ammonium acetate, 0.2 mg mL^−1 glycogen, and a 16 nt ^32P-labeled loading control) and ethanol precipitated. Pellets were dried and dissolved in equal volumes of water and loading dye (95% formamide, 20 mM EDTA, and 0.05% each bromophenol blue and xylene cyanol), then boiled and run on a sequencing-style 10% acrylamide, 7 M urea, 1× TBE gel. The bromophenol blue dye was run to the bottom of the gel (∼1.75 h). The gel was removed from the glass plate using Whatman 3 mm paper and then dried at 80°C under a vacuum for 15–30 min. Gels were then exposed to a phosphorimager screen, which was imaged on a Typhoon FLA9500 scanner (GE Life Sciences) and analyzed by ImageQuant TL v.8.1.0.0 (GE Life Sciences). […] Relative activity was calculated by dividing normalized synthesis at each inhibitor concentration by the normalized synthesis without inhibitor. […]

Regarding `NCCOc1cc(C(=O)Nc2cc(OCCN)c3ccccc3n2)nc(C(=O)Nc2cc(OCCN)c3ccccc3n2)c1` [PDS, pyridostatin], the IC50 in assay [1] (template 9xTEL, Li+) stood at 110 nM; in assay [1] (template 9xTEL, Na+/K+) it was 140 nM; in assay [1] (template 9xnoGG, Li+) it was 180 nM; in assay [1] (template 9xnoGG, Na+/K+), 200 nM; at telomerase (2 nM telomerase, 50 nM 3xTEL DNA primer, 75 mM KCl/50 mM NaCl, 30°C, 1 h, read-out: half maximal inhibitory concentration (IC50) of telomerase), 520 nM; in assay [2] (template 9xTEL, Li+), 140 nM. Also, the IC50 in assay [2] (template 9xTEL, Na+/K+) worked out at 110 nM; in assay [2] (template 9xnoGG, Li+), 160 nM; in assay [2] (template 9xnoGG, Na+/K+), 120 nM. Also, the “stabilization in full spectrum thermal melt” value in the assay with 9xTEL DNA (TTAGGG)9 (9xTEL in Li+) was “considerable stabilization”. In the assay with 9xTEL DNA (TTAGGG)9 (9xTEL in NaCl, complex could not be entirely melted, no Tm calculated), the “stabilization of GQ secondary structure in thermal melt” value is given as “substantial stabilization”.

In the case of `C[n+]1ccc(-c2c3nc(c(-c4cc[n+](C)cc4)c4ccc([nH]4)c(-c4cc[n+](C)cc4)c4ccc([nH]4)c(-c4cc[n+](C)cc4)c4nc2C=C4)C=C3)cc1` [TMPyP4], in assay [1] (template 9xTEL), the “IC50synthesis in Li+ relative to Na+/K+ (fold higher)” value is “about fourfold”. In addition, the IC50 in assay [1] (template 9xTEL, Li+) was 1000 nM; in assay [1] (template 9xTEL, Na+/K+), 250 nM; in assay [1] (template 9xnoGG, Li+) it was 310 nM; in assay [1] (template 9xnoGG, Na+/K+), 220 nM; against telomerase, 6400 nM; in assay [2] (template 9xTEL, Li+), 840 nM. Moreover, the IC50 is 260 nM in assay [2] (template 9xTEL, Na+/K+); 200 nM in assay [2] (template 9xnoGG, Li+); 190 nM in assay [2] (template 9xnoGG, Na+/K+). Further, the “thermal melt transition temperature” value in the assay on 9xnoGG DNA (TGAGTG)9 (9xnoGG in Li+) and with 9xnoGG DNA (TGAGTG)9 (9xnoGG in Na+) was 52 °C throughout. The “increase of melting temperature of dimeric 9xnoGG” value in the assay with 9xnoGG DNA (TGAGTG)9 (9xnoGG) is “over 20 °C”. Moreover, in the assay on 9xTEL DNA (TTAGGG)9 (9xTEL in Na+, CD at 290 and 260 nm), the “increase of melting temperature (Tm)” value is “about 10 °C”.
